Experiment: xn = mol fraction of the nth substance listed, in the solute-free solvent

C#CC1(O)C=CC2C3CCC4=CC(=O)CCC4C3CCC21CC (centres undefined) + CO + O
solubility (g/100 g solution)
Conditions | x2 = 0.05881 | x2 = 0.1233 | x2 = 0.1942 | x2 = 0.2727 | x2 = 0.3599 | x2 = 0.4576 | x2 = 0.5675 | x2 = 0.6923 | x2 = 0.835
283.15 K | 0.314 | 0.312 | 0.374 | 0.434 | 0.812 | 1.22 | 1.5 | 3.21 | 3.44
293.15 K | 0.435 | 0.437 | 0.512 | 0.594 | 1.2 | 1.81 | 2.45 | 4.24 | 5.12
298.15 K | 0.503 | 0.51 | 0.598 | 0.692 | 1.49 | 2.18 | 3.09 | 4.83 | 6.09
303.15 K | 0.578 | 0.592 | 0.696 | 0.804 | 1.8 | 2.59 | 3.85 | 5.45 | 7.24
308.15 K | 0.66 | 0.687 | 0.811 | 0.932 | 2.16 | 3.06 | 4.78 | 6.1 | 8.54
313.15 K | 0.746 | 0.791 | 0.943 | 1.08 | 2.55 | 3.6 | 5.87 | 6.79 | 9.97
318.15 K | 0.838 | 0.905 | 1.09 | 1.25 | 2.97 | 4.2 | 7.12 | 7.51 | 11.7
323.15 K | 0.934 | 1.03 | 1.27 | 1.44 | 3.41 | 4.87 | 8.61 | 8.26 | 13.5

CCOC(=O)OC1=C(c2cc(C)ccc2C)C(=O)NC12CCC(OC)CC2 (centres undefined) + CO + O
solubility (g/100 g solution)
Conditions | 278.15 K | 283.15 K | 288.15 K | 293.15 K | 298.15 K | 303.15 K | 308.15 K | 313.15 K | 318.15 K
x2 = 0.2 | 0.00416 | 0.0064 | 0.0104 | 0.0162 | 0.0253 | 0.0409 | 0.0592 | 0.0833 | 0.132
x2 = 0.4 | 0.292 | 0.365 | 0.473 | 0.613 | 0.803 | 1.07 | 1.44 | 1.9 | 2.64
x2 = 0.6 | 1.47 | 1.82 | 2.22 | 2.8 | 3.56 | 4.5 | 5.89 | 7.65 | 9.83
x2 = 0.8 | 3.55 | 4.27 | 5.22 | 6.38 | 8.03 | 10.1 | 12.7 | 15.7 | 19.2

Cc1ncc(CO)c(CO)c1O.Cl + O + CC#N
solubility (g/100 g solution)
Conditions | 278.15 K | 283.15 K | 288.15 K | 293.15 K | 298.15 K | 303.15 K | 308.15 K | 313.15 K
x2 = 0.3 | 0.681 | 0.776 | 0.889 | 1.02 | 1.16 | 1.3 | 1.47 | 1.67
x2 = 0.4 | 2.06 | 2.27 | 2.65 | 2.92 | 3.32 | 3.7 | 4.04 | 4.51
x2 = 0.5 | 3.81 | 4.09 | 4.73 | 5.11 | 5.79 | 6.6 | 7.19 | 8.12
x2 = 0.6 | 5.82 | 6.51 | 7.44 | 8.31 | 9.5 | 10.3 | 11.2 | 12.6
x2 = 0.7 | 8.18 | 9.25 | 10.4 | 11.8 | 13.4 | 14.2 | 15.5 | 17.9
x2 = 0.8 | 10.6 | 11.9 | 13.4 | 15.2 | 16.6 | 18.3 | 20 | 23.4
x2 = 0.9 | 11.5 | 13.3 | 14.6 | 17 | 18.6 | 20.7 | 22.7 | 26.3

Cc1ncc(CO)c(CO)c1O.Cl + O + CC(C)O
solubility (g/100 g solution)
Conditions | 278.15 K | 283.15 K | 288.15 K | 293.15 K | 298.15 K | 303.15 K | 308.15 K | 313.15 K
x2 = 0.3 | 0.401 | 0.512 | 0.632 | 0.825 | 1.01 | 1.26 | 1.54 | 1.89
x2 = 0.4 | 0.684 | 0.867 | 1.11 | 1.47 | 1.84 | 2.34 | 2.86 | 3.53
x2 = 0.5 | 1.35 | 1.72 | 2.2 | 2.8 | 3.42 | 4.25 | 5.16 | 6.25
x2 = 0.6 | 2.56 | 3.18 | 3.92 | 4.83 | 5.89 | 7.02 | 8.34 | 9.79
x2 = 0.7 | 3.45 | 4.36 | 5.42 | 6.76 | 8.29 | 10.1 | 12 | 14.3
x2 = 0.8 | 4.83 | 6.11 | 7.62 | 9.29 | 11.3 | 13.4 | 15.8 | 18.8
x2 = 0.9 | 7.31 | 8.78 | 10.7 | 12.7 | 14.4 | 16.6 | 19.7 | 23.9

Cl.N=C(N)NC(=N)N1CCOCC1 + O + CC(C)O
solubility (g/100 g solution)
Conditions | x2 = 0.1 | x2 = 0.2 | x2 = 0.3 | x2 = 0.4 | x2 = 0.5 | x2 = 0.6 | x2 = 0.7 | x2 = 0.8 | x2 = 0.9
283.15 K | 0.441 | 0.892 | 2.04 | 4.24 | 8.16 | 13.2 | 19.8 | 25.8 | 35
293.15 K | 0.499 | 1.2 | 2.75 | 5.73 | 10.6 | 15.4 | 23.9 | 30.8 | 37.5
303.15 K | 0.607 | 1.51 | 3.56 | 7.55 | 13.8 | 20.6 | 29.6 | 36.8 | 44.3
313.15 K | 0.831 | 1.73 | 4.8 | 9.86 | 17.4 | 23.7 | 34.9 | 42.9 | 50.8
323.15 K | 1.11 | 2.09 | 5.83 | 12.6 | 21.2 | 30 | 39.1 | 45.7 | 55.9

Cc1ncc(CO)c(CO)c1O.Cl + O + CCCO
solubility (g/100 g solution)
Conditions | 278.15 K | 283.15 K | 288.15 K | 293.15 K | 298.15 K | 303.15 K | 308.15 K | 313.15 K
x2 = 0.3 | 0.893 | 1.08 | 1.2 | 1.42 | 1.8 | 2.05 | 2.29 | 2.62
x2 = 0.4 | 1.59 | 1.9 | 2.23 | 2.65 | 3.25 | 3.59 | 4.15 | 4.99
x2 = 0.5 | 2.6 | 3.07 | 3.42 | 4.1 | 5 | 5.68 | 6.43 | 7.5
x2 = 0.6 | 3.83 | 4.45 | 4.91 | 6.02 | 7.03 | 8.29 | 9.47 | 11.3
x2 = 0.7 | 5.37 | 6.24 | 6.84 | 8.27 | 9.8 | 11.7 | 13.3 | 15.1
x2 = 0.8 | 6.99 | 8.36 | 9.28 | 10.7 | 12.8 | 15.4 | 17.8 | 19.6
x2 = 0.9 | 8.57 | 10.3 | 11.9 | 13.8 | 16 | 19 | 21.1 | 24.1

NC(=O)NC1NC(=O)NC1=O (centres undefined) + O + CCO
solubility (g/100 g solution)
Conditions | 288.15 K | 293.15 K | 298.15 K | 303.15 K | 308.15 K | 313.15 K | 318.15 K | 323.15 K | 328.15 K | 333.15 K
x2 = 0.264 | 0.0433 | 0.0548 | 0.0707 | 0.0891 | 0.116 | 0.137 | 0.163 | 0.189 | 0.225 | 0.262
x2 = 0.447 | 0.0924 | 0.108 | 0.137 | 0.174 | 0.216 | 0.263 | 0.298 | 0.355 | 0.417 | 0.46
x2 = 0.683 | 0.159 | 0.202 | 0.268 | 0.332 | 0.409 | 0.535 | 0.646 | 0.76 | 0.923 | 1.09
x2 = 0.829 | 0.239 | 0.306 | 0.394 | 0.487 | 0.63 | 0.785 | 1.02 | 1.21 | 1.48 | 1.74
x2 = 0.928 | 0.264 | 0.353 | 0.5 | 0.619 | 0.787 | 0.968 | 1.3 | 1.58 | 1.97 | 2.33

C#CC1(O)C=CC2C3CCC4=CC(=O)CCC4C3CCC21CC (centres undefined) + O + CO
288.15 K
Conditions | solubility (g/100 g solution)
x2 = 0.165 | 4.27
x2 = 0.3077 | 3.7
x2 = 0.4325 | 1.93
x2 = 0.5424 | 1.49
x2 = 0.6401 | 1
x2 = 0.8058 | 0.438
x2 = 0.8767 | 0.371
x2 = 0.9412 | 0.371
